pIC50: −log10 of the molar value. Several values for one entry are separate records, joined by “and”; a condition that tells them apart may be missing. Equal entries are not always repeated. Where two headings read alike, the source gives them in different places.
Experiments:
HCT-116 xenografts = assay: In vivo anticancer activity, colon tumor xenograft mice (injected with HCT-116); parameters: species or system nude mice; conditions: for average tumor size: treated mice
Description: In vivo efficacy of the compounds of this invention was assessed using colon tumor xenograft mice (injected with HCT-116), as described in Cancer Research 2004, 64, 4621-4628.
HCT-116 cells were grown as subcutaneous tumors in nude mice. When well-established HCT-116 xenografts were palpable with tumor size of ˜100 mm^3, mice were randomly assigned to three groups: a vehicle control group (10 mice), a positive control group (10 mice), and a treatment group (21 mice). Of the treated mice, ten received Compound 209 at a daily dosage of 5 mg/kg and eleven received the same compound at a daily dosage of 15 mg/kg of via IV injection through the tail veins for 5 days/week for 2 consecutive weeks (days 1-5 and 8-12). The positive control mice received VX-680 (a known anti-cancer compound) at a daily dosage of 50 mg/kg, also via IV injection through the tail veins for 5 days/week for 2 consecutive weeks (days 1-5 and 8-12).

HCT-116 cells = assay: HCT-116 cell viability MTS assay; type: cell-based; conditions: Homo sapiens
Description: HCT-116 cell viability was examined by the MTS assay (Promega, Madison, Wis., USA). 2000 HCT-116 cells in 100 μL McCoy's 5a medium were seeded in each well of a 96-well plate. After 96-h incubation with a test compound, the cells were incubated with 20 μL of a MTS/PMS mixture (MTS/PMS ratio: 20: 1) for 2 h at 37° C. in a humidified incubator with 5% CO2 to allow viable cells to convert the tetrazolium salt (MTS) into formazan. The amount/concentration of formazan, which indicates the number of live cells, was determined by measuring the absorbance at 490 nm using a PerkinElmer Victor2 plate reader (PerkinElmer, Shelton, Cont., USA).

[1] = biological target: T1, GST-tAurora A (123-401aa) fusion protein (Homo sapiens, UniProt O14965); assay: Aurora Kinase A luminescent kinase assay; type: biochemical; conditions: IC50 (concentration of a test compound at which activity of 50% of Aurora A is inhibited)
T1 construct: GST-tAurora A (123-401aa) fusion protein; made in house; host or cells: Sf9 insect cells (baculovirus, pBacPAK8)
T1 sequence (O14965 123-401): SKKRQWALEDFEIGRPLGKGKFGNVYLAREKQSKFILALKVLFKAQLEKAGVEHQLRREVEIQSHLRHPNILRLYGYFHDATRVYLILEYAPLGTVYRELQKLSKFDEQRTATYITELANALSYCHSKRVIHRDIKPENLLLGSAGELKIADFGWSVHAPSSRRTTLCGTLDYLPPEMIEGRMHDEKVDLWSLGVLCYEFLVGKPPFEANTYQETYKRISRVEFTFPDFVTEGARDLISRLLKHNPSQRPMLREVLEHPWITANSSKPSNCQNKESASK
Description: The Aurora A catalytic domain with an N-terminal GST tag was constructed in pBacPAK8 plasmid and expressed in sf9 cells. […] To concentrate GST-tAurora A, buffer was replaced with Tris buffer (100 mM Tris (pH 7.5), 300 mM NaCl, 1 mM EDTA, 4 mM DTT) using Amicon ultra-15 (MWCO:30K, Millipore) to 2.4 mg/ml. After the addition of equal volume of glycerol and 0.04% Triton X-100, the proteins were stored aliquoted at −80° C.
Briefly, a test compound, enzyme, substrate-tetra(LRRWSLG), DTT and ATP were dissolved in Aur buffer (50 mM Tris-HCl pH 7.4, 10 mM NaCl, 10 mM MgCl2, and 100 μg/ml BSA) individually before the assay. […] 5 μM ATP (5 μl), 1 mM DTT (5 μl) and 0.1 mM tetra(LRRWSLG) peptide substrate (5 μl) were added into the reactions of test compounds and GST-tAurora A. The reactions were incubated at 37° C. for 90 min. 50 μl of Kinase-Glo Plus Reagent (V3771, Promega) was added into the reactions, followed by the incubation at 25° C. for 20 min.

[2] = read-out: IC50 (concentration of a test compound which causes 50% of the cell death), HCT-116, 96-h incubation, MTS
[3] = HCT-116, 96 h, read-out: IC50 (concentration of a test compound which causes 50% of the cell death), HCT-116, 96-h incubation, MTS

Row | SMILES | pIC50 (HCT-116 cells; [2]) | pIC50 [1] | also measured
1 | CN(C)Cc1ccccc1NC(=O)Nc1ccc(CCNc2ncnc3oc(-c4ccccc4)c(Cl)c23)cc1 [Compound 209] | > 7.00 | > 6.00 and 6.40 to 7.35 | tumor growth suppression (HCT-116 xenografts; 5 mg/kg daily, IV, days 1-5 and 8-12): suppressed tumor growth insignificantly; inhibition of tumor growth (HCT-116 xenografts; 15 mg/kg daily, IV, days 1-5 and 8-12): inhibition of tumor growth comparable to that of VX-680; average tumor size (HCT-116 xenografts; eleventh day (dose group not stated)): 654 mm^3; average tumor size (HCT-116 xenografts; fourth day (dose group not stated)): 381 mm^3
2 | O=C(NCCCl)Nc1ccc(CCNc2ncnc3oc(-c4ccccc4)c(Cl)c23)cc1 [Compound 217] |  | > 6.00 and 6.40 to 7.35 | pIC50 (HCT-116 cells; HCT-116, 96 h, read-out: IC50 (concentration of a test compound which causes 50% of the cell death)): 6.05 to 7.00
3 | O=C(NCCN1CCOCC1)Nc1ccc(CCNc2ncnc3oc(-c4ccccc4)c(Cl)c23)cc1 [Compound 218] | 6.05 to 7.00 | > 6.00 and 6.40 to 7.35 | 
4 | O=C(Nc1ccccc1)Nc1ccc(CCNc2ncnc3oc(-c4ccccc4)c(-c4cccc([N+](=O)[O-])c4)c23)cc1 [Compound 219] | 6.05 to 7.00 | > 6.00 and 6.40 to 7.35 | 
5 | Cc1oc2ncnc(NCCc3ccc(NC(=O)Nc4ccccc4)cc3)c2c1C [Compound 220] | 6.05 to 7.00 | > 6.00 and 6.40 to 7.35 | 
6 | COc1cccc(-c2cc3c(NCCc4ccc(NC(=O)Nc5ccccc5)cc4)ncnc3o2)c1 [Compound 221] | 6.05 to 7.00 | > 6.00 and 6.40 to 7.35 | 
7 | CCCCNC(=O)Nc1ccc(CCNc2ncnc3oc(-c4ccccc4)c(-c4ccccc4)c23)cc1 [Compound 222] | 6.05 to 7.00 | > 6.00 and 6.40 to 7.35 | 
8 | O=C(Nc1ccccc1)Nc1ccc(CCNc2ncnc3oc(-c4cccc(O)c4)cc23)cc1 [Compound 223] | 6.05 to 7.00 | > 6.00 and 6.40 to 7.35 | 
9 | CN(C)CCOc1cccc(-c2cc3c(NCCc4ccc(NC(=O)Nc5ccccc5)cc4)ncnc3o2)c1 [Compound 224] |  | > 6.00 and 6.40 to 7.35 | pIC50 (HCT-116 cells; [3]): 6.05 to 7.00
10 | O=C(Nc1ccccc1)Nc1ccc(CCNc2ncnc3oc(-c4ccccc4)c(CO)c23)cc1 [Compound 225] | 6.05 to 7.00 | > 6.00 and 6.40 to 7.35 | 
11 | Cc1c(-c2ccccc2)oc2ncnc(NCCc3ccc(NC(=O)Nc4ccccc4)cc3)c12 [Compound 226] | 6.05 to 7.00 | > 6.00 and 6.40 to 7.35 | 
12 | O=C(Nc1ccccc1)Nc1ccc(CCNc2ncnc3oc(-c4ccc(OCCN5CCOCC5)cc4)cc23)cc1 [Compound 230] | 6.05 to 7.00 | 6.40 to 7.35 and > 6.00 | 
13 | O=C(Nc1ccc(CCNc2ncnc3oc(-c4ccccc4)c(Cl)c23)cc1)Nc1cccnc1 [Compound 232] | 6.05 to 7.00 | 6.40 to 7.35 and > 6.00 | 
14 | O=C(Nc1ccccc1)Nc1ccc(CCNc2ncnc3oc(-c4ccc(OCCCl)cc4)cc23)cc1 [Compound 235] | 6.05 to 7.00 | > 6.00 and 6.40 to 7.35 | 
15 | O=C(Nc1ccccc1)Nc1ccc(CCNc2ncnc3oc(-c4ccc(OCCN5CCC(CO)CC5)cc4)cc23)cc1 [Compound 236] | 6.05 to 7.00 | > 6.00 and 6.40 to 7.35 | 
16 | O=C(Nc1ccccc1)Nc1ccc(CCNc2ncnc3oc(-c4ccc(OCCCN5CCC(CO)CC5)cc4)cc23)cc1 [Compound 237] | 6.05 to 7.00 | > 6.00 and 6.40 to 7.35 | 

Row | SMILES | pIC50 (HCT-116 cells; [2]) | pIC50 [1] | also measured
17 | O=C(Nc1ccccc1)Nc1ccc(CCNc2ncnc3oc(-c4ccc(OCCN5CCC(O)CC5)cc4)cc23)cc1 [Compound 239] | 6.05 to 7.00 | > 6.00 and 6.40 to 7.35 | 
18 | O=C(Nc1ccccc1)Nc1ccc(CCNc2ncnc3oc(-c4ccc(OCCCN5CCC(O)CC5)cc4)cc23)cc1 [Compound 240] | 6.05 to 7.00 | > 6.00 and 6.40 to 7.35 | 
19 | O=C(Nc1ccccc1)Nc1ccc(CCNc2ncnc3oc(-c4ccc(OCCCN5CCC[C@H]5CO)cc4)cc23)cc1 [Compound 241] | 6.05 to 7.00 | > 6.00 and 6.40 to 7.35 | 
20 | COc1ccc(-c2oc3ncnc(NCCc4ccc(NC(=O)Nc5ccccc5)cc4)c3c2Cl)cc1 [Compound 244] | 6.05 to 7.00 | > 6.00 and 6.40 to 7.35 | 
21 | COc1ccc(-c2cc3c(NCCc4ccc(NC(=O)Nc5ccccc5CN(C)C)cc4)ncnc3o2)cc1 [Compound 245] | 6.05 to 7.00 | > 6.00 | 
22 | CN(C)CCCOc1ccc(-c2cc3c(NCCc4ccc(NC(=O)Nc5ccccc5)cc4)ncnc3o2)cc1 [Compound 247] |  | 6.40 to 7.35 and > 6.00 | pIC50 (HCT-116 cells; [3]): 6.05 to 7.00
23 | O=C(Nc1ccccc1)Nc1ccc(CCNc2ncnc3sc4c(c23)CCCCC4)cc1 [Compound 248] | 6.05 to 7.00 | > 6.00 | 
24 | O=C(Nc1ccccc1)Nc1ccc(CCNc2ncnc3oc(-c4ccccc4)c(C#CCCO)c23)cc1 [Compound 249] | 6.05 to 7.00 | 6.40 to 7.35 and > 6.00 | 
25 | O=C(Nc1ccccc1)Nc1ccc(CCNc2ncnc3oc(-c4ccccc4)c(-c4ccc(CO)o4)c23)cc1 [Compound 250] | 6.05 to 7.00 | 6.40 to 7.35 and > 6.00 | 
26 | O=C(Nc1ccccc1)Nc1ccc(CCNc2ncnc3oc(-c4ccccc4)c(CCCCO)c23)cc1 [Compound 251] | 6.05 to 7.00 | > 6.00 | 
27 | CN(C)Cc1cccc(NC(=O)Nc2ccc(CCNc3ncnc4oc(-c5ccccc5)c(Cl)c34)cc2)c1 [Compound 252] | 6.05 to 7.00 | > 6.00 | 
28 | CN(C)Cc1ccc(NC(=O)Nc2ccc(CCNc3ncnc4oc(-c5ccccc5)c(Cl)c34)cc2)cc1 [Compound 253] | 6.05 to 7.00 | 6.40 to 7.35 and > 6.00 | 
29 | Cc1oc2ncnc(NCCc3cnc(NC(=O)Nc4ccccc4)s3)c2c1C [Compound 254] | 6.05 to 7.00 | 6.40 to 7.35 and > 6.00 | 
30 | O=C(Nc1ccccc1)Nc1ncc(CCNc2ncnc3oc(-c4ccccc4)cc23)s1 [Compound 255] | 6.05 to 7.00 | > 6.00 | 
31 | O=C(Nc1ccccc1)Nc1ncc(CCNc2ncnc3oc(-c4ccccc4)c(Cl)c23)s1 [Compound 256] | 6.05 to 7.00 | 6.40 to 7.35 and > 6.00 | 
32 | Cc1cc(Nc2cc(N3CCN(C)CC3)nc(Sc3ccc(NC(=O)C4CC4)cc3)n2)n[nH]1 [VX-680, reference compound] |  |  | inhibition of tumor growth (HCT-116 xenografts; 50 mg/kg daily, IV, days 1-5 and 8-12, positive control): inhibition of tumor growth

— patent US8138194B2, “Fused bicyclic pyrimidine compounds as aurora kinase inhibitors” (National Health Research Institutes, priority 2008, dated 2012)
